Assay results from publication PMC9609996, “SAR Study and Molecular Mechanism Investigation of Novel Naphthoquinone-furan-2-cyanoacryloyl Hybrids with Antitumor Activity” (Pharmaceutics, 2022).

What was measured:
[1] = test system: AKT phosphorylation in HeLa cells; experiment: Western blot, AKT phosphorylation; assay type: cell-based, human; details: 6 h interval
Protocol: Protein levels were determined by the standard Western blot assay. […] Cells harvested with trypsin were treated with 1× RIPA lysis buffer (50 mM Tris-HCl, pH 7.4, 150 mM NaCl, 0.25% deoxycholic acid, 1% NP-40, 1 mM ethylenediaminetetraacetate (EDTA), and protease inhibitor PMSF (Solarbio, Beijing, China) to extract the total proteins. Then, an aliquot of proteins from the total cell lysates (4–40 μg/lane) was separated using sodium dodecyl sulfate (8, 10, or 12%) polyacrylamide gel electrophoresis (BioRad Laboratories, Hercules, CA, USA). The aliquot was wet-transferred to a PVDF membrane (BioRad Laboratories, Hercules, CA, USA), blotted with primary antibodies (purchased from Cell Signaling Technology, Danvers, MA, USA) specific for the STAT3 (#12640), p-STAT3 (#9145), AKT (#4691), p-AKT (#4060), Bax (#5023), Bcl-xl (#2764), secondary isotype-specific antibodies (#7074) and glyceraldehyde-3-phosphate dehydro-genase (GAPDH, #2118) as the internal standard overnight; then, they were probed with secondary isotype-specific antibodies for another 2 h at 37 °C. The bound immuno-complexes were detected using a ChemiDOC XRS+ system (BioRad Laboratories, Hercules, CA, USA).

[2] = test system: four cancer cell lines (HeLa, PC3, A549, and HCT116); experiment: CCK-8 inhibition rates over four cancer cell lines; assay type: cell-based; details: Homo sapiens, HeLa, PC3, A549, HCT116, CCK-8, read-out: inhibition rate, span over the four cancer cell lines
Protocol: First, the inhibition rates at 20 μM for all newly synthesized compounds were evaluated on four cancer cell lines (HeLa, PC3, A549, and HCT116) by a CCK-8 assay. […] A variety of aliphatic amine substituents were well tolerated (4e, 4f, 5c, and 8f).
(§1) Human cervical cancer HeLa, human prostate cancer PC3, human colonic carcinoma HCT116, human lung carcinoma A549, human breast cancer MDA-MB-231, mouse melanoma B16, human ovarian cancer SKOV3, human hepatoma Hep3B, and human liver L02 cells were purchased from the Cell Bank of Shanghai Institute of Biochemistry and Cell Biology, Chinese Academy of Sciences (Shanghai, China). The HeLa, A549, B16, PC3, MDA-MB-231, HCT116, and L02 cells were cultured in Dulbecco’s modified Eagle medium (DMEM, Gibco Inc.; Gaithersburg, MD, USA). All cultures were supplied with 10% fetal bovine serum (FBS; YHSM, Beijing, China), 100 IU/mL of penicillin, and 100 μg/mL of streptomycin, and cells were incubated at 37 °C in an atmosphere of 5% CO2.
(§2) A CCK-8 kit (MCE, USA) was used to perform a CCK-8 assay. Cells were plated and grown in the 96-well plates for the indicated period (48 h) in the incubator, followed by an incubation with the CCK-8 solutions for 1–4 h. Subsequently, the absorbance (450 nm) was measured by a microplate reader. The median inhibitory concentration (IC50) was determined from the dose–response curve. Experiments were performed in a triplicate.

HeLa cells [3] = experiment: Cell cycle analysis by flow cytometry; assay type: cell-based, human; details: 12 μM; 24 h; 10.19% at 0 μM
Protocol: To investigate the effect of compound 5c on the cell cycle distribution, a flow cytometric analysis was performed. HeLa cells were treated with 5c at concentrations of 0 μM, 6 μM, 9 μM, and 12 μM for 24 h and then subjected to a flow cytometric analysis after DNA staining. […] Accordingly, treatment of HeLa cells with 5c induced a G2/M phase arrest of cell cycle progression.
For the cell cycle analysis, HeLa cells seeded in a 6-well plate (3 × 10^5 per well) were incubated with different concentrations of compound 5c or 0.1% DMSO for 24 h. Then, the cells were digested with 0.25% trypsin (without EDTA) and were washed twice with PBS, fixed in 70% ethanol overnight, and stained with PI ([…], Sigma) plus 0.2 mg/mL of DNase-free RNase A (Qiagen) for 20 minutes at room temperature. For the annexin V apoptosis assay, HeLa cells seeded in a 6-well plate (3 × 10^5 per well) were incubated with different concentrations of compound 5c or 0.1% DMSO for 24 h. Then, the cells were digested with 0.25% trypsin (without EDTA) and were washed twice with PBS. The cells were then collected and resuspended in 500 μL of the binding buffer. We added 5 μL of annexin V-FITC and PI each into the mixture in the dark. After 20 min of incubation, a flow cytometer (FACSCalibur; Becton Dickinson, Franklin Lakes, NJ, USA) was used to detect apoptosis (FITC Ex/Em = 488/525 nm and PI Ex/Em = 535/615 nm). […]

HeLa cells [4] = experiment: Colony formation assay; assay type: cell-based, human; details: treated 24 h, cultured two weeks
Protocol: HeLa cells were cultured at 1 × 10^3 cells per well in a 6-well plate with a regular growth medium for 12 h. After the cells were fixed on the wall, they were treated with different concentrations of compound 5c or 0.1% DMSO for 24 h. Then, the cells were cultured in a fresh medium for two weeks until the colonies were visible. A crystal violet staining solution (Beyotime, Shanghai, China) was used to stain the colonies for 30 min, and the result was recorded by a smartphone. The colonies were defined as >50 cells/colony.

HeLa = experiment: CCK-8 anti-proliferation assay, HeLa; assay type: cell-based, human; details: Homo sapiens, mean ± SD
Protocol: as §1, §2

PC3 = experiment: CCK-8 anti-proliferation assay, PC3; assay type: cell-based, human; details: mean ± SD; for IC50: 48 h
Protocol: as §1, §2

IC50 (HeLa; 48 h): 3.1 ± 0.02 µM
IC50 (PC3): 20.5 ± 0.05 µM
IC50 (PC3; Homo sapiens, PC-3, 48 h): > 20.5 µM
Compound: N#C/C(=C\c1ccc(C2=CC(=O)c3ccccc3C2=O)o1)C(=O)NCCN1CCOCC1 [Compound 5c, (E)-2-cyano-3-(5-(1,4-dioxo-1,4-dihydronaphthalen-2-yl)furan-2-yl)-N-(2-morpholinoethyl)acrylamide]
phosphorylation level of AKT [1]: effectively inhibited
inhibition at 20 µM [2]: 24.7 to 75.8%
HeLa cell population in the G2/M phase (HeLa cells [3]): 23.88%
colony forming ability of HeLa cells (HeLa cells [4]): significantly inhibited
inhibition at 20 µM (HeLa; 20 μM, read-out: Inhibition Rate (%) at 20 μM HeLa): 75.78 ± 0.05%
inhibition at 20 µM (PC3; Homo sapiens, PC-3, 20 μM, read-out: Inhibition Rate (%) at 20 μM PC3): 25.54 ± 0.06%
